In brackets after ≈: the same amount, converted by molar mass.

This test has as its system Trichophyton mentagrophytes. Put plainly: Antimicrobial activity against Trichophyton mentagrophytes by microbroth dilution method. The format is functional.

`C=C(C=O)[C@]1(O)C[C@@]2(C)C(=CC1=O)C=C[C@H](OC(=O)/C=C/C=C/[C@@H](C)CC)[C@@H]2C`: the MIC worked out at 1.58 µg/mL (≈ 3.96 µM).

The values above are taken from ChEMBL document CHEMBL1159232, “Bipolal: anti-microalgal compound isolated as a candidate for marine antifouling produced by Bipolaris sp. F5206” (1995).
